Data on 14 molecules can be found in patent publication US20260008775A1, “AZOLE MODULATORS OF CHOLESTEROL BIOSYNTHESIS AND THEIR USE FOR PROMOTING REMYELINATION” (GENENTECH, INC., priority 2022, published 2026).

For assay [1], the target named is human emopamil binding protein and human 7-dehydrocholesterol reductase (hEBP-DHCR7) (Homo sapiens (Human), UniProt Q15125). Description: hEBP-DHCR7 radioligand binding assay (filter binding, membranes of co-expressing HEK293 cells). The following applies: competition with [3H] radioligand, 8 doses 0.06 to 5000 nM, Ki calculated from IC50. The method, then: Membrane Preparation: human emopamil binding protein and human 7-dehydrocholesterol reductase co-expressing cells were generated by transient transfecting host human embryonic kidney (HEK) 293 cells with 2 DNA constructs containing each protein's coding sequence. Cells were suspension cultured at 37° C. with 5% CO2 in […] 293 Expression Medium (Thermofisher). Whole cell membrane was prepared by harvesting the cell pellet, adding cold membrane buffer (50 mM Tris, pH7.5, 1× Roche COMPLETE EDTA-free protease inhibitor cocktail) 10 times volume of the cell pellets weight, lysing cell pellet on ice by using Dounce homogenizer, spinning at 200 g 4° C. for 15 min, collecting supernatant and spinning again at 25000 g 4° C. for 50 min, transferring pellet to Dounce homogenizer, re-suspending pellet by homogenizing in membrane buffer on ice to reach ˜25 mg/mL, then keeping whole cell membrane aliquots at −80° C.
Compounds were prepared in a 96-well U bottom plate (Corning Cat #7007) using an Echo550 machine and 10 mM compound DMSO stock solution, followed by an 8-dose 5-fold serial dilutions protocol with final testing compound concentration ranging from 0.06 to 5000 nM, with DMSO back fill to 100 nL/well and n=2. […] The UniFilter-96 GF/B plates (PerkinElmer Cat #6005177) were pre-treated by adding 50 μl/well of 0.3% (v/v) Polyethylenimine (PEI) (branched, Sigma Cat #408727) to UniFilter-96 GF/B plates. The plates were sealed and incubated at 4° C. for 3 hrs. Then, the plates were washed with ice-cold assay buffer 3 times. The radioligand binding assay was prepared by adding assay buffer diluted hEBP-DHCR7 membrane at 66.7 µg/ml×150 μl/well into the 96-well compound plate to reach 10 μg membrane per well. Then, the assay buffer diluted [3H]—(S)-6-(2-Methyl-3-(6-(trifluoromethyl)pyridin-3-yl)propyl)-2-thia-6-azaspiro[3.4]octane 2,2-dioxide (Moravek, Cat #MT-1003106) was added at 25 nM×50 μl/well. Following this, the plate was centrifuged at 1000 rpm for 30 secs. The plate was then sealed and agitated at 600 rpm at 22° C. for 5 min, and then incubated at 22° C. for 3 hrs. The incubation was stopped by transferring the binding solution to the pre-treated UniFilter-96 GF/B plate, vacuum filtrated, and then washed four times with ice-cold assay buffer. Following this, the plates were dried at 37° C. for 45 min. The plates were then sealed at the bottom. 40 µl/well of scintillation cocktail was added to the plates. A MicroBeta2 microplate counter was then used to read the plate and analyze the data. For reference and test compounds, the results are expressed as % Inhibition, using the normalization equation: N=100−100×(U−C2)/(C1−C2), where U is the unknown value, C1 is the average of high controls, and C2 is the average value of low controls.

For assay [2], the system named is zymostenol accumulation (EBP) in EpiSC-derived OPCs. The assay can be described thus: GC/MS-based sterol profiling, zymostenol accumulation in EpiSC-derived OPCs. As to conditions: Mus musculus, 24 h, EpiSC-derived OPCs, 24 hr, 8 doses from 0.15 nM to 333 nM; read-out: Mouse Zymostenol GCMS EC50. It counts as cell-based, mouse. The method, then:
(§1) To assess effects of treatments on OPCs, all treatments were assayed in two or more independent platings of epiblast stem cell-derived OPCs (EpiSC). EpiSC-derived OPCs were obtained using in vitro differentiation protocols and culture conditions described previously (Najm et al, 2011, Nature Methods). OPCs were expanded and frozen down in aliquots. OPCs were thawed into growth conditions for at least one passage before use in further assays.
Sterols were monitored using a modified Folch wash protocol (Hubler et al, 2018, Nature). EpiSC-derived OPCs were plated at 100,000 cells per well in PO- and laminin-coated 96-well plates in N2B27 media without growth factors. After 24 hours, cells were rinsed with saline and plates were frozen. Cholesterol-d7 standard was then added to each well before drying under nitrogen stream and derivatization with 55 μl of bis(trimethylsilyl) trifluoroacetamide. After derivatization, 2 μl were analyzed by gas chromatography/mass spectrometry using an Agilent 5973 Network Mass Selective Detector equipped with a 6890 gas chromatograph system and a HP-5MS capillary column (30 m×0.25 mm×[…]). Samples were analyzed in full scan mode using electron impact ionization; ion fragment peaks were integrated to calculate sterol abundance, and quantitation was relative to cholesterol-d7. The following ion fragments were used to quantitate each metabolite: cholesterol-d7 (465), FF-Mas (482), cholesterol (368), zymostenol (458), zymosterol (456), Desmosterol (456, 343), 7-dehydrocholesterol (456, 325), lanosterol (393), lathosterol (458), 14-dehydrozymostenol (456, 351). […] All standards were obtained from Avanti Polar Lipids unless otherwise indicated. Calibration curves were generated by injecting varying concentrations of sterol standards and maintaining a fixed amount of cholesterol-D7. For normalized zymostenol accumulation results, the total amount of zymostenol measured after drug treatment was divided by the total amount of zymostenol accumulated after 24 hr treatment with 100 nM positive control reference.

Another assay has as its system EpiSC-derived OPCs. The assay can be described thus: In vitro phenotypic screening of OPCs, MBP high-content imaging (percentage of oligodendrocytes). The class given is cell-based, mouse. The method, then:
as §1
EpiSC-derived OPCs were grown and expanded in poly-L-ornithine (PO) and laminin-coated flasks in N2B27 media (DMEM/F12 (Gibco), N2-MAX (R&D Systems), B-27 (ThermoFisher), and GlutaMax (Gibco)) supplemented with FGF2 (10 μg/mL, R&D systems, 233-FB-025) and PDGF-AA (10 μg/mL, R&D systems, 233-AA-050) before harvesting for experiments. The cells were seeded onto poly-L-ornithine or poly-D-lysine coated CellCarrier Ultra plates (PerkinElmer) coated with laminin (Sigma, L2020) at a density of 150,000/cm^2 in N2B27 media without growth factors. For dose-response testing, a 1000× compound stock in dimethyl sulphoxide (DMSO) was added to assay plates, resulting in 8-point dose curves with final concentrations between 1000 nM and 0.5 nM. Positive controls and DMSO vehicle controls were included in each assay plate. Cells were incubated under standard conditions (37° C., 5% CO2) for 3 days and fixed with 4% paraformaldehyde (PFA) in phosphate buffered saline (PBS) for 20 min. Fixed plates were washed with PBS, permeabilized with 0.1% Triton X-100, and blocked with 10% donkey serum (v/v) in PBS for 40 min. Then, cells were labelled with MBP antibodies (Abcam, ab7349; 1:200) for 2 h at room temperature, washed with PBS, and stained with Alexa Fluor conjugated secondary antibodies (1:500) for 45 min. Nuclei were visualized by DAPI staining (Sigma; […]), followed by further PBS washes.
Cells and cell culture plates were imaged on the Operetta High Content Imaging and Analysis system (PerkinElmer). Analysis (PerkinElmer Harmony and Columbus software) began by identifying intact nuclei stained by DAPI. The peri-nuclear region of each cell was then cross-referenced with the mature myelin protein (MBP) stain to identify oligodendrocyte nuclei, and from this the percentage of oligodendrocytes was calculated. EC50 values were calculated using The Levenberg-Marquardt algorithm to fit a Hill equation to dose-response data (0.5 nM to 1000 nM).

human emopamil binding protein and human 7-dehydrocholesterol reductase (hEBP-DHCR7), sequence (Q15125 whole entry): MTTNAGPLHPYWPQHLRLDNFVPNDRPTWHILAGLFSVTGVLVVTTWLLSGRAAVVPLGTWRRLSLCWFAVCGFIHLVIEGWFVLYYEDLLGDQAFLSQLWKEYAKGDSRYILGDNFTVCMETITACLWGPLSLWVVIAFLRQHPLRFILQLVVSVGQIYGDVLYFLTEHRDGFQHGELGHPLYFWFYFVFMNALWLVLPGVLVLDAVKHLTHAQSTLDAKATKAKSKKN

On to `CC[C@H]1CN([C@@H]2CC[C@H](c3nc(-c4ccc(C(F)(F)F)nc4)nn3C(C)C)C2)CCO1` [Compound 128, (S)-2-Ethyl-4-((1R,3S)-3-(1-isopropyl-3-(6-(trifluoromethyl)pyridin-3-yl)-1H-1,2,4-triazol-5-yl)cyclopentyl)morpholine], for which, in assay [1], the Ki (in general, a measure of affinity in units of concentration, obtained from inhibition or displacement) is 118 nM. Moreover, in assay [2], the EC50 (in general, the concentration needed to bring the measured effect to its halfway point) was found to be 16.6 nM.
As to `CC[C@@H]1CN([C@@H]2CC[C@H](c3nc(-c4cncc(Cl)c4)nn3C(C)C)C2)CCO1` [Compound 129, (R)-4-((1R, 3S)-3-(3-(5-Chloropyridin-3-yl)-1-isopropyl-1H-1,2,4-triazol-5-yl)cyclopentyl)-2-ethylmorpholine], the Ki in assay [1] is 23.2 nM. Also, the EC50 in assay [2] turned out to be 2.79 nM.
The like results for `CC(C)n1nc(-c2cnc(C(F)(F)F)nc2)nc1[C@H]1CC[C@H](N2CCO[C@H](C)C2)C1` [Compound 145, (R)-4-((1S,3S)-3-(1-isopropyl-3-(2-(trifluoromethyl)pyrimidin-5-yl)-1H-1,2,4-triazol-5-yl)cyclopentyl)-2-methylmorpholine] were, in that order, 299 nM and 83.5 nM.
`CC[C@@H]1CN([C@@H]2CC[C@H](c3nc(-c4cnc(C(F)(F)F)c(F)c4)nn3C(C)C)C2)CCO1` [Compound 146, (R)-2-Ethyl-4-((1R,3S)-3-(3-(5-fluoro-6-(trifluoromethyl)pyridin-3-yl)-1-isopropyl-1H-1,2,4-triazol-5-yl)cyclopentyl)morpholine]: the Ki in assay [1] was 11.3 nM. Besides, the EC50 in assay [2] was 0.94 nM.
For the molecule `CC[C@H]1CN([C@@H]2CC[C@H](c3nc(-c4cnc(C(F)(F)F)c(F)c4)nn3C(C)C)C2)CCO1` [Compound 147, (S)-2-Ethyl-4-((1R,3S)-3-(3-(5-fluoro-6-(trifluoromethyl)pyridin-3-yl)-1-isopropyl-1H-1,2,4-triazol-5-yl)cyclopentyl)morpholine], the Ki in assay [1] is 1740 nM. In addition, in assay [2], the EC50 stood at 14.5 nM.
In the same order, the values of `CC(C)n1nc(-c2cnc(C(F)(F)F)nc2)nc1[C@@H]1CC[C@H](N2CCO[C@H](C)C2)C1` [Compound 148, (R)-4-((1S,3R)-3-(1-Isopropyl-3-(2-(trifluoromethyl)pyrimidin-5-yl)-1H-1,2,4-triazol-5-yl)cyclopentyl)-2-methylmorpholine] are 22.2 nM and 13.4 nM.
Take `CC(C)n1nc(-c2cnc(C(F)(F)F)nc2)nc1[C@@H]1CC[C@@H](N2CCO[C@H](C)C2)C1` [Compound 149, (R)-4-((1R,3R)-3-(1-Isopropyl-3-(2-(trifluoromethyl)pyrimidin-5-yl)-1H-1,2,4-triazol-5-yl)cyclopentyl)-2-methylmorpholine]: the Ki in assay [1] is 68.3 nM. For the same molecule, in assay [2], the EC50 stood at 129 nM.
The like results for `CC(C)n1nc(-c2cnc(C(F)(F)F)nc2)nc1[C@@H]1CC[C@H](N2CCO[C@@H](C)C2)C1` [Compound 150, (S)-4-((1S,3R)-3-(1-Isopropyl-3-(2-(trifluoromethyl)pyrimidin-5-yl)-1H-1,2,4-triazol-5-yl)cyclopentyl)-2-methylmorpholine] were, in that order, 3540 nM and 946 nM.
In the same order, the values of `CC(C)n1nc(-c2cnc(C(F)(F)F)nc2)nc1[C@@H]1CC[C@@H](N2CCO[C@@H](C)C2)C1` [Compound 151, (S)-4-((1R,3R)-3-(1-Isopropyl-3-(2-(trifluoromethyl)pyrimidin-5-yl)-1H-1,2,4-triazol-5-yl)cyclopentyl)-2-methylmorpholine] are 505 nM and 129 nM.
As to `CC[C@@H]1CN([C@@H]2CC[C@@H](c3nc(-c4cnc(C(F)(F)F)nc4)nn3C(C)C)C2)CCO1` [Compound 153, (R)-2-Ethyl-4-((1R,3R)-3-(1-isopropyl-3-(2-(trifluoromethyl)pyrimidin-5-yl)-1H-1,2,4-triazol-5-yl)cyclopentyl) morpholine], the Ki in assay [1] was 58.2 nM. Also, the EC50 in assay [2] amounted to 13.4 nM.
In the same order, the values of `CC[C@H]1CN([C@H]2CC[C@@H](c3nc(-c4cnc(C(F)(F)F)nc4)nn3C(C)C)C2)CCO1` [Compound 154, (S)-2-Ethyl-4-((1S,3R)-3-(1-isopropyl-3-(2-(trifluoromethyl)pyrimidin-5-yl)-1H-1,2,4-triazol-5-yl)cyclopentyl)morpholine] are 465 nM and 221 nM.
In the same order, the values of `CC[C@H]1CN([C@@H]2CC[C@@H](c3nc(-c4cnc(C(F)(F)F)nc4)nn3C(C)C)C2)CCO1` [Compound 155, (S)-2-Ethyl-4-((1R,3R)-3-(1-isopropyl-3-(2-(trifluoromethyl)pyrimidin-5-yl)-1H-1,2,4-triazol-5-yl)cyclopentyl) morpholine] are 465 nM and 305 nM.
The like results for `CC[C@@H]1CN([C@@H]2CC[C@H](c3nc(-c4ccc(C(F)F)nc4)nn3C(C)C)C2)CCO1` [Compound 156, (R)-4-((1R,3S)-3-(3-(6-(Difluoromethyl)pyridin-3-yl)-1-isopropyl-1H-1,2,4-triazol-5-yl)cyclopentyl)-2-ethylmorpholine] were, in that order, 43.8 nM and 4.07 nM.
Turning to `CC(C)n1nc(-c2cnc(N)c(C(F)(F)F)c2)cc1[C@H]1[C@@H]2C[C@H](N3CCOCC3)C[C@@H]21` [Compound B, reference compound], in the assay with EpiSC-derived OPCs (Mus musculus, 72 h, 3 days, MBP stain, dose-response 0.5 nM to 1000 nM, read-out: OPC EC50), the EC50 is 692 nM. Besides, in the assay on EpiSC-derived OPCs (as compared to compound 171), the “fold decrease in activity in the OPC assay” value came to 41.7 fold.
